The test system of one data set is MEC2. Nature of the data set: Survival/mortality of MEC2 in control or FMD medium. The class given is cell-based, human. Particulars: for effect of FMD medium on growth inhibitory effect of the drug: FMD vs control medium.
The next data set deals with MEC1. Kind of data set: Survival/mortality of MEC1 in control or FMD medium. Format: cell-based, human. Particulars: for effect of FMD medium on growth inhibitory effect of the drug: FMD vs control medium.
Data set [1] deals with relapsed and refractory indolent lymphomas. Particulars: single agent; cited from earlier work.
Another data set relates to L1210. Nature of the data set: Erythrosin B exclusion survival/mortality of L1210 in control or FMD medium. The class given is cell-based, murine.
Data set [2] relates to MEC1 cells. Nature of the data set: In vivo CLL model, histopathological analysis of organs (H&E). The settings on record: majority of organs. On the set-up: species or system Rag2−/−γc−/− female mice. On the procedure:
(§1) Eight-week-old Rag2−/−γ c−/− female mice were challenged intravenously (iv) via lateral tail veins with 10×10^6 MEC1 cells in 0.1 ml of saline through a 27-gauge needle, as previously described by Bertilaccio et al., (2010). Before injection, cells in log phase of growth were harvested and suspended in phosphate-buffered saline (PBS) at 100×10^6 cells/ml, and 100 μl (10×10^6 cells per mouse) was injected iv. All mice were gently warmed before intravenous injections to dilate the veins. Body weights were determined daily, and tumor progression was determined by blood smear. Animals were monitored every day for weight and general health conditions and were sacrificed when they experienced clinical signs of illness following the criteria approved and described in the protocol #742/2015—PR (see Animal Ethics Statement).
(§2) Animals were fasted for a total of 48 hours by complete deprivation of food but with free access to water. […] Body weight was measured daily and immediately before and after fasting. […]
For morphological analysis, organs (BM, spleen, kidney, liver and lung) were formalin-fixed, paraffin-embedded, cut at 3-μm-thick sections, and stained with hematoxylin and eosin. Histologic sections were evaluated in a double-blinded fashion. […] For these mice groups, the morphology of analyzed organ was similar to the control ([…]).

Data set [3] concerns MEC1 cells. Nature of the data set: In vivo CLL model, FACS for human CD19/CD20/CD45 leukemic cells in tissues. The settings on record: in combination with STS; majority of analyzed tissues. On the set-up: species or system Rag2−/−γc−/− female mice. The protocol:
as §1, §2
For FACS analysis, after blocking fragment crystallizable receptors for 10 minutes at room temperature to avoid nonspecific binding of antibodies, cells from PB, BM, peritoneal exudates, and spleen were stained with PE-Vio770 anti-human CD19 antibody. FITC anti-human CD20 and TRITC anti-human CD45 anti-human, respectively (MACS Miltenyi Biotec) and analyzed with BD FACSCANTO II flow cytometer. […]

Data set [4] is described as follows: In vivo CLL model, spleen weight. The settings on record: fasted (STS) groups. Set-up: species or system Rag2−/−γc−/− female mice. On the procedure: as §1
Animals were fasted for a total of 48 hours by complete deprivation of food but with free access to water. Mice were individually housed in a clean new cage to reduce cannibalism, coprophagy, and residual chow. Body weight was measured daily and immediately before and after fasting. […]
At the end of experimental procedure, peripheral blood (PB), peritoneal exudates and organs [spleen, kidneys, liver, lungs, and femoral bone marrow (BM)] were collected and analyzed either for FACS or morphological analyses. For all experimental group, spleen weight was measured (FIG. 21).

The next data set concerns CD20. The settings on record: rituximab-resistant cell lines in vitro; cited from earlier work.
For data set [5], the system named is primary embryonic mouse fibroblast (MEF). Particulars: 24 h, 10 μM.
Setting [6] is: alone or in combination with low glucose/FCS (FMD).

Results on nine molecules are retold here after US20200010562A1, “NEW THERAPEUTIC STRATEGIES AGAINST BLOOD CANCER” (priority 2015, published 2020).

Like-named read-outs stand apart in the source and are kept apart here.

For Rituximab, the “effect on cell survival and death” value with MEC2 and with MEC1 was “very effective” throughout. Besides, in [1], the overall response rate is given as 50%.
With (−)Epigallocatechin Gallate [EGCG], the reducing survival rates result in the data set with L1210 is “did not show a strong efficiency”.
As for `CC(C)C[C@H](NC(=O)[C@H](Cc1ccccc1)NC(=O)c1cnccn1)B(O)O` [Bortezomib], the “metastases and cluster of infiltration” value in the data set with MEC1 cells [2] (ad lib) and with MEC1 cells [2] (with STS) was “lesser expanse” each time. Moreover, the “effect of FMD medium on growth inhibitory effect of the drug” value in the data set with MEC2 and with MEC1 was “remarkably improved” throughout. Further, in the data set on L1210, the killing tumor cells entry was “very effective in killing tumor cells”. Besides, the “expression of human CD19, human CD20 and human CD45” value with MEC1 cells [3] is reported as “significantly decreases”. In [4], the spleen weight result is on record as “significantly lower”. Besides, the CD20 expression result in the data set with CD20 is “increases CD20 expression”.
As for `O=C(/C=C/c1cccc(S(=O)(=O)Nc2ccccc2)c1)NO` [Belinostat], the “effect of FMD medium on growth inhibitory effect of the drug” value in the data set with MEC2 and with MEC1 was “remarkably improved” in each case. In addition, the killing tumor cells result in the data set with L1210 is recorded as “very effective in killing tumor cells”.
On to `O=C1O[C@H]([C@@H](O)CO)C(O)=C1O` [Vitamin C, L-Ascorbic acid], for which, in the data set with L1210, the reducing survival rates result is given as “did not show a strong efficiency”.
On to `O=P1(N(CCCl)CCCl)NCCCO1` (stereo not drawn) [Cyclophosphamide], for which the killing tumor cells result in the data set on L1210 is listed as “very effective in killing tumor cells”.
Take `COc1cc(/C=C/C(=O)CC(=O)/C=C/c2ccc(O)c(OC)c2)ccc1O` [Curcumin]: the reducing survival rates entry in the data set on L1210 (setting [6]) was “did not show a strong efficiency”.
As for `C/C=C1\NC(=O)[C@H]2CSSCC/C=C/[C@H](CC(=O)N[C@H](C(C)C)C(=O)N2)OC(=O)[C@H](C(C)C)NC1=O` [Romidepsin], in [5], the “decrease of percentage of surviving cells” value was “about 50%”, the mortality rate entry is “about 12%”, the percentage of mortality stood at 4% and the survival rate entry is reported as “about 77%”.
As for `C[C@]12C=CC(=O)C=C1CC[C@@H]1[C@@H]2C(=O)C[C@@]2(C)[C@H]1CC[C@]2(O)C(=O)CO` [Prednisone], in the data set with L1210 (setting [6]), the reducing survival rates entry is reported as “did not show a strong efficiency”. Also, the “effect on L1210 growth” value in the data set with L1210 (independently of the application of the FMD) was “no or limited effect”.
